This assay deals with carrageenan-induced mouse paw edema. Description: Carrageenan-induced paw edema. As to conditions: carrageenan-induced mouse paw inflammation; IIn treated. In kind it is in vivo, mouse (female C57BL/6J). In general terms: The carrageenan paw model is a standard test of acute inflammation.

Structures are written as SMILES.

On to `CN(Cc1ccccn1)Cc1cccc(CN(C)Cc2ccccn2)n1` [IIn, N,N′-(Pyridine-2,6-diylbis(methylene))bis(N-methyl-1-(pyridin-2-yl)methanamine)], for which the “Histological analysis of paw tissue (H&E)” value was “significantly attenuated the mouse paw inflammation and damage”.
